This passage reports EC50 and IC50 results from ChEMBL document CHEMBL1141868, “Synthesis, biological activity, and X-ray crystal structural analysis of diaryl ether inhibitors of malarial enoyl acyl carrier protein reductase. Part 1: 4'-substituted triclosan derivatives” (Bioorg Med Chem Lett, 2005).

Some results are limits rather than exact numbers.

One test has as its system Plasmodium falciparum. The experiment in a line: Inhibition of drug-resistant Plasmodium falciparum Dd2 after 72 hrs. The format is functional, organism-based. The conditions noted are these: Dd2, 72 h.
A word on the EC50: it is the concentration at which the effect is half-maximal. `O=C(O)c1ccc(Oc2ccc(Cl)cc2O)c(Cl)c1` came in with a concentration for a half-maximal effect (EC50) of 130 µM.
Still for that read-out and setting: the value for `O=C(c1ccc(Oc2ccc(Cl)cc2O)c(Cl)c1)N1CCOCC1` was 94.5 µM; that for `Oc1ccccc1CNc1ccc(Oc2ccc(Cl)cc2O)c(Cl)c1` was 5.6 µM; that for `O=S(=O)(Nc1ccc(Oc2ccc(Cl)cc2O)c(Cl)c1)c1ccccc1` was 77.5 µM.
Consider `CNC(=O)c1ccc(Oc2ccc(Cl)cc2O)c(Cl)c1`, for which the 50% effective concentration (EC50) stood at 100 µM.
Still for that read-out and setting: the figure for `O=S(=O)(Nc1ccc(Oc2ccc(Cl)cc2O)c(Cl)c1)C(F)(F)F` is greater than 120 µM; for `NC(=O)Nc1ccc(Oc2ccc(Cl)cc2O)c(Cl)c1` it is 120 µM; for `O=C(Nc1ccc(Oc2ccc(Cl)cc2O)c(Cl)c1)N1CCOCC1` it is 86.4 µM.
The same measure, in the same setting: the value for `Oc1cc(Cl)ccc1Oc1ccc(-c2nn[nH]n2)cc1Cl` was greater than 150 µM; that for `NC(=O)c1ccc(Oc2ccc(Cl)cc2O)c(Cl)c1` was 100 µM.
With `O=S(=O)(Nc1ccc(Oc2ccc(Cl)cc2O)c(Cl)c1)c1cccc2ccccc12`, a half-maximal response (EC50) required 43.7 µM.
On the same count and under the same terms, the value for `CN(C)C(=O)c1ccc(Oc2ccc(Cl)cc2O)c(Cl)c1` was 95.7 µM.
The same measure, in the same setting: the figure for `O=S(=O)(Nc1ccc(Oc2ccc(Cl)cc2O)c(Cl)c1)c1ccc2ccccc2c1` is 33.9 µM.
`Oc1ccc(Oc2ccc(Cl)cc2O)c(Cl)c1` had a concentration for a half-maximal effect (EC50) of 87.8 µM.
Turning to `N#Cc1ccc(Oc2ccc(Cl)cc2O)c(Cl)c1`, the EC50 turned out to be 5.4 µM.
`N#Cc1ccccc1CNc1ccc(Oc2ccc(Cl)cc2O)c(Cl)c1` came in with an EC50 of 45.4 µM.
Same read-out and setting: the figure for `O=C(NO)c1ccc(Oc2ccc(Cl)cc2O)c(Cl)c1` is 30.6 µM; for `N#CCc1ccc(Oc2ccc(Cl)cc2O)c(Cl)c1` it is 36.4 µM.
Take `Oc1cc(Cl)ccc1Oc1ccc(NCc2ccccc2)cc1Cl`: the midpoint of the response, the EC50, lay at 47.5 µM.
On the same count and under the same terms, the figure for `O=C(c1ccc(Oc2ccc(Cl)cc2O)c(Cl)c1)N1CCCCC1` is 18 µM.
On the same count and under the same terms, the value for `CC(=O)Nc1ccc(Oc2ccc(Cl)cc2O)c(Cl)c1` was 50.9 µM; that for `O=C(Nc1ccc(Oc2ccc(Cl)cc2O)c(Cl)c1)c1ccccc1` was 83.9 µM; that for `O=C(c1ccc(Oc2ccc(Cl)cc2O)c(Cl)c1)N1CCCC1` was 42.6 µM.
`O=[N+]([O-])c1ccc(Oc2ccc(Cl)cc2O)c(Cl)c1` registered a concentration for a half-maximal effect (EC50) of 3.2 µM.
On the same count and under the same terms, the figure for `O=C(NCc1ccccc1)c1ccc(Oc2ccc(Cl)cc2O)c(Cl)c1` is 20.6 µM; for `Nc1ccc(Oc2ccc(Cl)cc2O)c(Cl)c1` it is 140 µM; for `Oc1cc(Cl)ccc1Oc1ccc(Cl)cc1Cl` [TRICLOSAN] it is 3.9 µM.

A further test concerns the target T1, Enoyl-acyl-carrier protein reductase (Plasmodium falciparum, UniProt Q965D5).
T1 sequence (Q965D5 whole entry): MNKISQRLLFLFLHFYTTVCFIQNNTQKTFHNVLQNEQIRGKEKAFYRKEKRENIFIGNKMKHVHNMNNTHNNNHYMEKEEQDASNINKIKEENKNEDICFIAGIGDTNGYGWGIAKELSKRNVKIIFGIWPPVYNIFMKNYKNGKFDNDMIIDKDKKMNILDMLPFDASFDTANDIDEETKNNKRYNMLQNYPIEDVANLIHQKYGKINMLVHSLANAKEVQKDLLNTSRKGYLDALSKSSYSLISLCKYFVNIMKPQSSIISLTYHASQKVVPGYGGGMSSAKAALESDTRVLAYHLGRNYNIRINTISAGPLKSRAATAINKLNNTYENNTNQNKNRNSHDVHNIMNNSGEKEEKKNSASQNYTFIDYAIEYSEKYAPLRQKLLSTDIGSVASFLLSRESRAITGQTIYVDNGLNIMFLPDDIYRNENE
The experiment in a line: Inhibition of PfENR enzymatic activity.
Settings: not given
Broadly, the IC50 is the concentration that inhibits the measured activity by half. The molecule `O=C(O)c1ccc(Oc2ccc(Cl)cc2O)c(Cl)c1` showed an IC50 of 0.55 µM.
As to `O=C(c1ccc(Oc2ccc(Cl)cc2O)c(Cl)c1)N1CCOCC1`, half-maximal inhibition (IC50) required 0.2 µM.
On the same count and under the same terms, the value for `Oc1ccccc1CNc1ccc(Oc2ccc(Cl)cc2O)c(Cl)c1` was 0.32 µM; that for `O=S(=O)(Nc1ccc(Oc2ccc(Cl)cc2O)c(Cl)c1)c1ccccc1` was 0.37 µM; that for `CNC(=O)c1ccc(Oc2ccc(Cl)cc2O)c(Cl)c1` was 0.31 µM.
Still for that read-out and setting: the figure for `O=S(=O)(Nc1ccc(Oc2ccc(Cl)cc2O)c(Cl)c1)C(F)(F)F` is 0.14 µM; for `NC(=O)Nc1ccc(Oc2ccc(Cl)cc2O)c(Cl)c1` it is 0.16 µM.
The molecule `O=C(Nc1ccc(Oc2ccc(Cl)cc2O)c(Cl)c1)N1CCOCC1` returned an IC50 of 0.25 µM.
`Oc1cc(Cl)ccc1Oc1ccc(-c2nn[nH]n2)cc1Cl` gave a concentration for half-maximal inhibition (IC50) of 0.413 µM.
On the same count and under the same terms, the value for `NC(=O)c1ccc(Oc2ccc(Cl)cc2O)c(Cl)c1` was 0.12 µM; that for `O=S(=O)(Nc1ccc(Oc2ccc(Cl)cc2O)c(Cl)c1)c1cccc2ccccc12` was 0.59 µM; that for `CN(C)C(=O)c1ccc(Oc2ccc(Cl)cc2O)c(Cl)c1` was 0.46 µM.
The molecule `O=S(=O)(Nc1ccc(Oc2ccc(Cl)cc2O)c(Cl)c1)c1ccc2ccccc2c1` registered a half-maximal inhibitory concentration (IC50) of 2.5 µM.
Regarding `Oc1ccc(Oc2ccc(Cl)cc2O)c(Cl)c1`, the IC50 is 0.22 µM.
With `N#Cc1ccc(Oc2ccc(Cl)cc2O)c(Cl)c1`, the IC50 is 0.12 µM.
With `N#Cc1ccccc1CNc1ccc(Oc2ccc(Cl)cc2O)c(Cl)c1`, the IC50 is 0.56 µM.
For `O=C(NO)c1ccc(Oc2ccc(Cl)cc2O)c(Cl)c1`, the IC50 was found to be 1.2 µM.
Take `N#CCc1ccc(Oc2ccc(Cl)cc2O)c(Cl)c1`: the 50% inhibitory concentration (IC50) was 0.19 µM.
The same measure, in the same setting: the figure for `Oc1cc(Cl)ccc1Oc1ccc(NCc2ccccc2)cc1Cl` is 0.14 µM.
The same measure, in the same setting: the figure for `O=C(c1ccc(Oc2ccc(Cl)cc2O)c(Cl)c1)N1CCCCC1` is 0.68 µM; for `CC(=O)Nc1ccc(Oc2ccc(Cl)cc2O)c(Cl)c1` it is 0.057 µM.
On the same count and under the same terms, the value for `O=C(Nc1ccc(Oc2ccc(Cl)cc2O)c(Cl)c1)c1ccccc1` was 0.17 µM.
`O=C(c1ccc(Oc2ccc(Cl)cc2O)c(Cl)c1)N1CCCC1` came in with an IC50 of 0.81 µM.
On the same count and under the same terms, the value for `O=[N+]([O-])c1ccc(Oc2ccc(Cl)cc2O)c(Cl)c1` was 0.18 µM; that for `O=C(NCc1ccccc1)c1ccc(Oc2ccc(Cl)cc2O)c(Cl)c1` was 3 µM.
The same measure, in the same setting: the value for `Nc1ccc(Oc2ccc(Cl)cc2O)c(Cl)c1` was 0.36 µM; that for `Oc1cc(Cl)ccc1Oc1ccc(Cl)cc1Cl` [TRICLOSAN] was 0.073 µM.

A further test relates to Plasmodium falciparum. Briefly: Inhibition of drug-sensitive Plasmodium falciparum 3D7 after 72 hrs. The format is functional, organism-based. The settings on record: 3D7, 72 h.
`O=C(O)c1ccc(Oc2ccc(Cl)cc2O)c(Cl)c1` displayed an EC50 of 110 µM.
The same measure, in the same setting: the value for `O=C(c1ccc(Oc2ccc(Cl)cc2O)c(Cl)c1)N1CCOCC1` was 63.5 µM; that for `Oc1ccccc1CNc1ccc(Oc2ccc(Cl)cc2O)c(Cl)c1` was 4.5 µM.
Molecule `O=S(=O)(Nc1ccc(Oc2ccc(Cl)cc2O)c(Cl)c1)c1ccccc1` showed an EC50 of 55.1 µM.
On the same count and under the same terms, the figure for `CNC(=O)c1ccc(Oc2ccc(Cl)cc2O)c(Cl)c1` is 77.8 µM; for `O=S(=O)(Nc1ccc(Oc2ccc(Cl)cc2O)c(Cl)c1)C(F)(F)F` it is greater than 120 µM.
The same measure, in the same setting: the value for `NC(=O)Nc1ccc(Oc2ccc(Cl)cc2O)c(Cl)c1` was 110 µM; that for `O=C(Nc1ccc(Oc2ccc(Cl)cc2O)c(Cl)c1)N1CCOCC1` was 66.8 µM.
On the same count and under the same terms, the figure for `Oc1cc(Cl)ccc1Oc1ccc(-c2nn[nH]n2)cc1Cl` is 120 µM; for `NC(=O)c1ccc(Oc2ccc(Cl)cc2O)c(Cl)c1` it is 96.3 µM; for `O=S(=O)(Nc1ccc(Oc2ccc(Cl)cc2O)c(Cl)c1)c1cccc2ccccc12` it is 34.3 µM.
`CN(C)C(=O)c1ccc(Oc2ccc(Cl)cc2O)c(Cl)c1` came in with an EC50 of 68.4 µM.
Turning to `O=S(=O)(Nc1ccc(Oc2ccc(Cl)cc2O)c(Cl)c1)c1ccc2ccccc2c1`, the EC50 stood at 23.5 µM.
For the molecule `Oc1ccc(Oc2ccc(Cl)cc2O)c(Cl)c1`, the EC50 worked out at 65.3 µM.
Regarding `N#Cc1ccc(Oc2ccc(Cl)cc2O)c(Cl)c1`, the response was half-maximal at 3.9 µM (EC50).
On to `N#Cc1ccccc1CNc1ccc(Oc2ccc(Cl)cc2O)c(Cl)c1`, for which the midpoint of the response, the EC50, lay at 26.7 µM.
On the same count and under the same terms, the value for `O=C(NO)c1ccc(Oc2ccc(Cl)cc2O)c(Cl)c1` was 31.2 µM; that for `N#CCc1ccc(Oc2ccc(Cl)cc2O)c(Cl)c1` was 23.1 µM.
Molecule `Oc1cc(Cl)ccc1Oc1ccc(NCc2ccccc2)cc1Cl` returned a concentration giving a half-maximal response (EC50) of 35.8 µM.
Consider `O=C(c1ccc(Oc2ccc(Cl)cc2O)c(Cl)c1)N1CCCCC1`, for which a half-maximal response (EC50) required 11.7 µM.
Take `CC(=O)Nc1ccc(Oc2ccc(Cl)cc2O)c(Cl)c1`: it took 52.2 µM to reach a half-maximal effect (EC50).
In turn, `O=C(Nc1ccc(Oc2ccc(Cl)cc2O)c(Cl)c1)c1ccccc1` displayed an EC50 of 57.2 µM.
`O=C(c1ccc(Oc2ccc(Cl)cc2O)c(Cl)c1)N1CCCC1` came in with a concentration for a half-maximal effect (EC50) of 20.7 µM.
Same read-out and setting: the value for `O=[N+]([O-])c1ccc(Oc2ccc(Cl)cc2O)c(Cl)c1` was 2.1 µM; that for `O=C(NCc1ccccc1)c1ccc(Oc2ccc(Cl)cc2O)c(Cl)c1` was 7.5 µM.
Molecule `Nc1ccc(Oc2ccc(Cl)cc2O)c(Cl)c1` had a concentration for a half-maximal effect (EC50) of 120 µM.
The molecule `Oc1cc(Cl)ccc1Oc1ccc(Cl)cc1Cl` [TRICLOSAN] displayed a concentration for a half-maximal effect (EC50) of 2.9 µM.
